Tests used:
α-glucosidase = target: T1, α-glucosidase (Saccharomyces cerevisiae, UniProt P53341); assay: α-glucosidase inhibitory activity test in vitro; format: biochemical; details: read-out: α-glucosidase inhibitory activity (IC50)
T1 construct: purchased Sigma Corporation G5003

[1] = body weight of hyperglycemia KK-A^y mice; format: in vivo
Method: Materials: accurately weigh the 2 compounds S13 and S28 discussed in example 2, and then add 0.5% CMC-Na to make the solution of 5 mg/ml used for activity test. KK-A^y mice are purchased from Chinese Academy of Medical Sciences & Peking Union Medical College Institute of Animal Studies. Experiments are carried out after adapting to the environment (T=20-24° C., constant humidity: 50-60%, 12 hours light exposure (8:00-20:00), soundproof, free feeding and drinking) for 1 week. Glucometer is purchased from Roche.
Methods: 10 male C57 mice of 6-8 weeks of 20-22 g are used as normal control group (1). Detect the fasting glucose of male KK-A^y mice, which are 6-8 weeks with the weight of 28-32 g, and divide them into different groups according to the blood sugar level and body weight: (2) model control group, (3) which is administered by compound S13 with the dose of 1 mg/kg, (4) which is administered by compound S13 with the dose of 5 mg/kg, (5) which is administered by compound S13 with the dose of 10 mg/kg, (6) which is administered by compound S13 with the dose of 20 mg/kg, (7) which is administered by compound S28 with the dose of 1 mg/kg, (8) which is administered by compound S28 with the dose of 5 mg/kg, (9) which is administered by compound S28 with the dose of 10 mg/kg, (10) which is administered by compound S28 with the dose of 20 mg/kg, (11) which is administered by metformin with the dose of 8 g/kg, (12) which is administered by compound S13 with the dose of 2.5 mg/kg and metformin with the dose of 4 g/kg, (13) which is administered by compound S13 with the dose of 5 mg/kg and metformin with the dose of 4 g/kg, (14) which is administered by compound S28 with the dose of 2.5 mg/kg and metformin with the dose of […], (15) which is administered by compound S28 with the dose of 5 mg/kg and metformin with the dose of […]. Each group has 8 mice, and is administrated successively for 3 weeks. Model control group is given with equal amounts of 0.5% CMC-Na.
2) Effects on body weight and blood sugar: the body weight of mice are recorded at the 2th, 5th, 8th, 11th, 14th, 17th, 20th day after administration, and blood is collected from tip of tail to detect the blood sugar level (see table 10).

HMG-CoA reductase = target: T2, HMG-CoA reductase (Homo sapiens, UniProt P04035); assay: HMG-CoA reductase inhibitory activity test in vitro; format: biochemical
T2 sequence (P04035 426-888 limits assumed): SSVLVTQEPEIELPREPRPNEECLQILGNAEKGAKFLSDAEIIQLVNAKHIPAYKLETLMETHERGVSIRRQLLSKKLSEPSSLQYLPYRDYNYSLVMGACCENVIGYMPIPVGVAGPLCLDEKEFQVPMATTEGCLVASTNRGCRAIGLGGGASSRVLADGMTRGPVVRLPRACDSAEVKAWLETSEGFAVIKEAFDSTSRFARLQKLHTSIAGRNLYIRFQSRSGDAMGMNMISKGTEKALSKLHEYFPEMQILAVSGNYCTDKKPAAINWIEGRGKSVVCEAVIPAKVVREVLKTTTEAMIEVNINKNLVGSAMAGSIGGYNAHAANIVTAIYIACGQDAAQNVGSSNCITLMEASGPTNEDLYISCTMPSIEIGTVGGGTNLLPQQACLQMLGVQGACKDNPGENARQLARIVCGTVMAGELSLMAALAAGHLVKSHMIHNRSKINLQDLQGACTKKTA

[2] = 2st day, 20 mg/kg, groups 6, 10
[3] = 5st day, 20 mg/kg, groups 6, 10
[4] = 8st day, 20 mg/kg, groups 6, 10
[5] = 11st day, 10 mg/kg, groups 5, 9
[6] = 11st day, 20 mg/kg, groups 6, 10
[7] = 14st day, 10 mg/kg, groups 5, 9
[8] = 14st day, 20 mg/kg, groups 6, 10
[9] = 17st day, 10 mg/kg, groups 5, 9
[10] = 17st day, 20 mg/kg, groups 6, 10
[11] = 20st day, 10 mg/kg, groups 5, 9
[12] = 20st day, 20 mg/kg, groups 6, 10

T1 sequence (P53341 whole entry): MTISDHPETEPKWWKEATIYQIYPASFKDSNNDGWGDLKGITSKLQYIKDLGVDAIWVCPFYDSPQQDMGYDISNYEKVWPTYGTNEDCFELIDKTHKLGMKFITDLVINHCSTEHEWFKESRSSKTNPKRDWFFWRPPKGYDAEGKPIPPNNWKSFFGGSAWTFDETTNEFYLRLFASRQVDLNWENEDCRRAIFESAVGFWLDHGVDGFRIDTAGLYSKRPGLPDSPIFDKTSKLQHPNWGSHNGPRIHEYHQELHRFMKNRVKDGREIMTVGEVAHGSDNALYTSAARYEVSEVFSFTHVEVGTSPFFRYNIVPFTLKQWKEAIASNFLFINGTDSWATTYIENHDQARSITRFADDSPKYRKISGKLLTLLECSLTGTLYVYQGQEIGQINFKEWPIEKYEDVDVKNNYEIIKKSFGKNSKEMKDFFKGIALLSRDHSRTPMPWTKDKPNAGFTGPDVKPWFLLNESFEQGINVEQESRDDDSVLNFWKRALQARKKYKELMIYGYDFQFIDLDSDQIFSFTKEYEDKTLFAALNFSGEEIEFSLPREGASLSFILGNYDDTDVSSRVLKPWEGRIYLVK

Question: Which IC50 (α-glucosidase) does the source give for `CC(C)=CCC/C(C)=C/CCC1=C[C@H](c2cc(O)ccc2O)OC1=O` [S13, (R,E)-5-(2,5-dihydroxyphenyl)-3-(4,8-dimethylnona-3,7-dien-1-yl)furan-2(5H)-one] here?
Answer: The IC50 was 0.27 µM.

Question: And the “effect on body weight (in words)” value [1]?
Answer: Its value is “litter effect on body weight”.

Question: And the Body weight ([1]; 2st day, 1 mg/kg, groups 3, 7)?
Answer: The Body weight was 30.6 g.

Question: What about the Body weight ([1]; 2st day, 5 mg/kg, groups 4, 8) of the same compound?
Answer: Its Body weight is 30.7 g.

Question: And the Body weight ([1]; 2st day, 10 mg/kg, groups 5, 9)?
Answer: The Body weight was 30.3 g.

Question: What about the Body weight [1, 2] of the same compound?
Answer: The Body weight was 30.5 g.

Question: What about the Body weight ([1]; 5st day, 1 mg/kg, groups 3, 7) of the same compound?
Answer: The Body weight was 30.8 g.

Question: What about the Body weight ([1]; 5st day, 5 mg/kg, groups 4, 8) of the same compound?
Answer: The Body weight was 30.8 g.

Question: What about the Body weight ([1]; 5st day, 10 mg/kg, groups 5, 9) of the same compound?
Answer: The Body weight was 30.2 g.

Question: And the Body weight [1, 3]?
Answer: The Body weight was 30.3 g.

Question: And the Body weight ([1]; 8st day, 1 mg/kg, groups 3, 7)?
Answer: The Body weight was 30.5 g.

Question: What about the Body weight ([1]; 8st day, 5 mg/kg, groups 4, 8) of the same compound?
Answer: The Body weight was 30.9 g.

Question: What about the Body weight ([1]; 8st day, 10 mg/kg, groups 5, 9) of the same compound?
Answer: The Body weight was 30.3 g.

Question: And the Body weight [1, 4]?
Answer: The Body weight was 30.2 g.

Question: What about the Body weight ([1]; 11st day, 1 mg/kg, groups 3, 7) of the same compound?
Answer: Its Body weight is 30.5 g.

Question: And the Body weight ([1]; 11st day, 5 mg/kg, groups 4, 8)?
Answer: Its Body weight is 31.2 g.

Question: And the Body weight [1, 5]?
Answer: The Body weight was 31.5 g.

Question: What about the Body weight [1, 6] of the same compound?
Answer: Its Body weight is 30.1 g.

Question: And the Body weight ([1]; 14st day, 1 mg/kg, groups 3, 7)?
Answer: Its Body weight is 31.2 g.

Question: And the Body weight ([1]; 14st day, 5 mg/kg, groups 4, 8)?
Answer: The Body weight was 31.5 g.

Question: And the Body weight [1, 7]?
Answer: The Body weight was 32.5 g.

Question: What about the Body weight [1, 8] of the same compound?
Answer: The Body weight was 30.4 g.

Question: And the Body weight ([1]; 17st day, 1 mg/kg, groups 3, 7)?
Answer: Its Body weight is 31.8 g.

Question: And the Body weight ([1]; 17st day, 5 mg/kg, groups 4, 8)?
Answer: Its Body weight is 31.5 g.

Question: What about the Body weight [1, 9] of the same compound?
Answer: The Body weight was 32.1 g.

Question: What about the Body weight [1, 10] of the same compound?
Answer: The Body weight was 30 g.

Question: What about the Body weight ([1]; 20st day, 1 mg/kg, groups 3, 7) of the same compound?
Answer: The Body weight was 32.1 g.

Question: And the Body weight ([1]; 20st day, 5 mg/kg, groups 4, 8)?
Answer: The Body weight was 31.6 g.

Question: What about the Body weight [1, 11] of the same compound?
Answer: Its Body weight is 32.5 g.

Question: What about the Body weight [1, 12] of the same compound?
Answer: Its Body weight is 30.1 g.

Question: And the IC50 (HMG-CoA reductase)?
Answer: Its IC50 is 7.9 µM.

Question: Which IC50 (α-glucosidase) does the source give for `CC(C)=CCC/C(C)=C/CCC1=C[C@@H](c2cc(O)ccc2O)OC1=O` [S28, (S,E)-5-(2,5-dihydroxyphenyl)-3-(4,8-dimethylnona-3,7-dien-1-yl)furan-2(5H)-one] here?
Answer: The IC50 was 0.42 µM.

Question: And the “effect on body weight (in words)” value [1]?
Answer: Its value is “litter effect on body weight”.

Question: What about the Body weight ([1]; 2st day, 1 mg/kg, groups 3, 7) of the same compound?
Answer: The Body weight was 30.1 g.

Question: And the Body weight ([1]; 2st day, 5 mg/kg, groups 4, 8)?
Answer: The Body weight was 30.3 g.

Question: And the Body weight ([1]; 2st day, 10 mg/kg, groups 5, 9)?
Answer: Its Body weight is 30.3 g.

Question: What about the Body weight [1, 2] of the same compound?
Answer: Its Body weight is 30.4 g.

Question: What about the Body weight ([1]; 5st day, 1 mg/kg, groups 3, 7) of the same compound?
Answer: The Body weight was 30.23 g.

Question: What about the Body weight ([1]; 5st day, 5 mg/kg, groups 4, 8) of the same compound?
Answer: Its Body weight is 30.43 g.

Question: What about the Body weight ([1]; 5st day, 10 mg/kg, groups 5, 9) of the same compound?
Answer: Its Body weight is 30.51 g.

Question: What about the Body weight [1, 3] of the same compound?
Answer: The Body weight was 30.36 g.

Question: And the Body weight ([1]; 8st day, 1 mg/kg, groups 3, 7)?
Answer: The Body weight was 30.6 g.

Question: What about the Body weight ([1]; 8st day, 5 mg/kg, groups 4, 8) of the same compound?
Answer: The Body weight was 30.8 g.

Question: And the Body weight ([1]; 8st day, 10 mg/kg, groups 5, 9)?
Answer: Its Body weight is 30.4 g.

Question: What about the Body weight [1, 4] of the same compound?
Answer: The Body weight was 30.2 g.

Question: And the Body weight ([1]; 11st day, 1 mg/kg, groups 3, 7)?
Answer: Its Body weight is 30.8 g.

Question: What about the Body weight ([1]; 11st day, 5 mg/kg, groups 4, 8) of the same compound?
Answer: The Body weight was 31.3 g.

Question: And the Body weight [1, 5]?
Answer: Its Body weight is 31.4 g.

Question: And the Body weight [1, 6]?
Answer: Its Body weight is 30.5 g.

Question: And the Body weight ([1]; 14st day, 1 mg/kg, groups 3, 7)?
Answer: Its Body weight is 31.25 g.

Question: And the Body weight ([1]; 14st day, 5 mg/kg, groups 4, 8)?
Answer: Its Body weight is 31.76 g.

Question: And the Body weight [1, 7]?
Answer: Its Body weight is 32.56 g.

Question: And the Body weight [1, 8]?
Answer: Its Body weight is 30.4 g.

Question: And the Body weight ([1]; 17st day, 1 mg/kg, groups 3, 7)?
Answer: Its Body weight is 31.4 g.

Question: What about the Body weight ([1]; 17st day, 5 mg/kg, groups 4, 8) of the same compound?
Answer: The Body weight was 31.5 g.

Question: And the Body weight [1, 9]?
Answer: Its Body weight is 32.6 g.

Question: And the Body weight [1, 10]?
Answer: The Body weight was 30.7 g.

Question: What about the Body weight ([1]; 20st day, 1 mg/kg, groups 3, 7) of the same compound?
Answer: The Body weight was 32.1 g.

Question: What about the Body weight ([1]; 20st day, 5 mg/kg, groups 4, 8) of the same compound?
Answer: The Body weight was 31.3 g.

Question: What about the Body weight [1, 11] of the same compound?
Answer: Its Body weight is 32.2 g.

Question: And the Body weight [1, 12]?
Answer: The Body weight was 30.2 g.

Question: What about the IC50 (HMG-CoA reductase) of the same compound?
Answer: The IC50 was 8.9 µM.

Reference: patent US10441562B2, “Aromatic farnesyl compound and application thereof” (INSTITUTE OF MICROBIOLOGY, CHINESE ACADEMY OF SCIENCES, priority 2015, dated 2019)
